Test [1] concerns the target T1, Angiotensin-converting enzyme (Oryctolagus cuniculus, UniProt P12822).
T1 sequence (P12822 34-1310): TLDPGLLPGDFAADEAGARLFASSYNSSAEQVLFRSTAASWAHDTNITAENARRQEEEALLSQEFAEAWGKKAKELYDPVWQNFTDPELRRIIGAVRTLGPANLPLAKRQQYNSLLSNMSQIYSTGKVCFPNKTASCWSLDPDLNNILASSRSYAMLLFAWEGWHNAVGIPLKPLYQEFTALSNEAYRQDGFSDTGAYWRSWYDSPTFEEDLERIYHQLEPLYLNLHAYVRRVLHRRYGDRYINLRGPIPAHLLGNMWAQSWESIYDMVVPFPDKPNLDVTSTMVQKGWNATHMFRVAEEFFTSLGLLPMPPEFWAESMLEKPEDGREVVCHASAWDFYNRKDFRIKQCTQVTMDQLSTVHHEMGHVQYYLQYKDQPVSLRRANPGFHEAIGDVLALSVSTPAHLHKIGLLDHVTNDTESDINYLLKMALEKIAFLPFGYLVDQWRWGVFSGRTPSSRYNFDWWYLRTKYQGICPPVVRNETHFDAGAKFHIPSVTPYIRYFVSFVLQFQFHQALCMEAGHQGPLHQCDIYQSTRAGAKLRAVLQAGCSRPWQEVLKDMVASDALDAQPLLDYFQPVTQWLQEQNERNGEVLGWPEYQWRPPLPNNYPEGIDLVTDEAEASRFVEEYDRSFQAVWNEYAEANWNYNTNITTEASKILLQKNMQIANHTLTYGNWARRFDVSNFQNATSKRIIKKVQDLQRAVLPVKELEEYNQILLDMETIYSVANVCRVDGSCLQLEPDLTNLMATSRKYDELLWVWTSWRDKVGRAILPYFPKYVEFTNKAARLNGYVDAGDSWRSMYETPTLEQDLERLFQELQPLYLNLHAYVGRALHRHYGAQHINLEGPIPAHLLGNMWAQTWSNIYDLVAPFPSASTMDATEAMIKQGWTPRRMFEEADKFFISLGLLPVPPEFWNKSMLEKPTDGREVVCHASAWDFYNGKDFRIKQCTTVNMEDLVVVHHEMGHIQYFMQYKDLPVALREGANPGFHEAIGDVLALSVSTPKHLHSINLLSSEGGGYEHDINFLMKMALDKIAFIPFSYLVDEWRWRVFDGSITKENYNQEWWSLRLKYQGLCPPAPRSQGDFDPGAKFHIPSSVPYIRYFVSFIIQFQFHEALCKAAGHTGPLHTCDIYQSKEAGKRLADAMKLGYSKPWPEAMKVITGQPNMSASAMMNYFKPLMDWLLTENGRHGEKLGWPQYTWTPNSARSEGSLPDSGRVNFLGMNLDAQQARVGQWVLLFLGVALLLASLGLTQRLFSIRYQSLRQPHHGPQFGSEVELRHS
As to the kind of experiment: ACE-inhibitory activity, spectrophotometric assay (Cushman & Cheung, modified). Format: biochemical. The note with it: synthetic peptides. As to the method:
ACE-inhibitory activity was measured by Cushman & Cheung 1971 (Biochemical Pharmacology, 20, 1637-1648) spectrophotometric assay with some modifications, as reported by (Quirós et al., 2007). For this purpose, protein concentration of the aliquots of the pepsin hydrolysate was determined by the Kjeldahl method. The protein content of the fractions collected from HPLC was estimated by the bicinchoninic acid assay (Pierce, Rockford, IL, USA) using bovine serum albumin, as standard, and peptide concentration of the chemically synthesized peptides was based in the dry weight of the peptides. Chemical synthesized peptides were purchased from GenScript Corp. (Piscataway, NJ, USA).

Another test relates to SHR rats. As to the kind of experiment: Systolic blood pressure in spontaneously hypertensive rats, tail-cuff method. It counts as in vivo. The note with it: single oral dose 5 mg kg^-1, followed up to 24 hours. As to the method: All procedures were carried out in accordance with conventional guidelines for experimentation with animals. Twelve-week old male SHR rats were used (Janvier, France); they were housed in groups of four per cage in a regulated environment with a 12 h light/dark cycle in a standard experimental laboratory of the Animal Experimentation Service of the Salamanca University (N°PAE SA001). The animals were deprived of solid diet 12 hours before experiments began but received a nutritive solution of 8% sucrose in 0.2% NaCl to avoid excessive dehydratation. The rats received a single dose of the synthesized peptides or zofenopril (5 mg kg^-1) dissolved in ultrapure water and the control group received the same volume of water. Systolic blood pressure (SBP) was measured in awake rats with an automated multichannel system, using the tail-cuff method with a photoelectric sensor (Niprem 546, Cibertec SA, Spain) as described in Guerrero et al., 2003 (Journal of Cardiovascular Pharmacology 42: 348-355). SBP was measured before administration, and also at 2, 4, 6, 8, 10 and 24 hours post-administration. The changes in SBP were expressed as the differences before and after administration of the different products. Unpaired student's t-test was used to compare groups.

The target in a further test is ACE (Homo sapiens, UniProt P12821). The note with it: cited from earlier work; for IC50: literature values; for ACE-inhibitory activity: literature, in vitro.
The next test relates to SHR. The note with it: literature; cited from earlier work.
A further test deals with human volunteers. The note with it: literature; cited from earlier work.
The mark [2] stands for this setting: mean ± standard error (n=3), read-out: IC50± SE.

Read-outs that look alike come from different tables or passages of the source. Where no end group is shown, it is not given here. A value given as a limit tells only on which side of the number the result lay.

Chain of ACE (P12821 30-1306, species assumed): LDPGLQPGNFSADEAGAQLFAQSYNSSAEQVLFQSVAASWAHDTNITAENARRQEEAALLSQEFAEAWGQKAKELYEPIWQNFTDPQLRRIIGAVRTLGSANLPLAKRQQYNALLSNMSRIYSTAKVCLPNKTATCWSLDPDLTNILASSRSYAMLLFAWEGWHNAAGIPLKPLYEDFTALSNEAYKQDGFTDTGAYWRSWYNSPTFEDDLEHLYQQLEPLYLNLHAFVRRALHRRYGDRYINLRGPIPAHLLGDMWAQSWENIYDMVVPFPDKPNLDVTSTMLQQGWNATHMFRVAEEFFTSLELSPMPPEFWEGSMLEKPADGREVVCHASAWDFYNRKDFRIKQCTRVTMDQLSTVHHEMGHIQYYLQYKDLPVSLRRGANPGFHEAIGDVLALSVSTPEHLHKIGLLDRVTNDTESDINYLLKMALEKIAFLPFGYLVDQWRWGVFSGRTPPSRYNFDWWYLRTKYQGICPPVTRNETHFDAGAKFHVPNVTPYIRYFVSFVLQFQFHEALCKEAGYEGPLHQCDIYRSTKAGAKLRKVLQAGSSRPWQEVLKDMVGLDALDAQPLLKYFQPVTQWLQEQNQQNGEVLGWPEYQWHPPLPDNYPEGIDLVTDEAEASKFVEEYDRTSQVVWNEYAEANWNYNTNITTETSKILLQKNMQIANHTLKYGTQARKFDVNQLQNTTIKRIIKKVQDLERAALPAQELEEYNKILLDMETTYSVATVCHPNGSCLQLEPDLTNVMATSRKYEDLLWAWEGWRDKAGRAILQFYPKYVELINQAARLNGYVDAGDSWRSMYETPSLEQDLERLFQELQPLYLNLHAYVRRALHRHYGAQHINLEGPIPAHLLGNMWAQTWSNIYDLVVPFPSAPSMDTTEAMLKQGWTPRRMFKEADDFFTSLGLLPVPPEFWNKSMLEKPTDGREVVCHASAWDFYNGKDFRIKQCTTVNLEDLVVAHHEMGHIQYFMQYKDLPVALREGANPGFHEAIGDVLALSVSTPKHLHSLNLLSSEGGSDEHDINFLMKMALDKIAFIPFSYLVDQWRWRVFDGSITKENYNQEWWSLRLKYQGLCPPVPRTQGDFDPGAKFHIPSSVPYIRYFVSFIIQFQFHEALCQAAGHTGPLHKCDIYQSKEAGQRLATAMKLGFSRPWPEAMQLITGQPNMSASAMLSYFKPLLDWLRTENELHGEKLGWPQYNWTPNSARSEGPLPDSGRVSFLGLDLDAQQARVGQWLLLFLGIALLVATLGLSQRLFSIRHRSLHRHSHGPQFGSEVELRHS

As to AYFYPEL [AYFYPEL], the IC50 (commonly the point on the concentration scale where inhibition reaches its midpoint) in test [1] (setting [2]) is 6.58 ± 0.5 µM; in test [1] (values in text, read-out: IC50), < 20 µM.

For FVAPFPEV [FVAPFPEV], in test [1] (setting [2]), the IC50 amounted to 476 ± 41.7 µM.

Turning to HLPLPLL [HLPLPLL], the IC50 in test [1] (setting [2]) stood at 34.4 ± 2.22 µM.

Regarding RYLGY [RYLGY], the IC50 in test [1] (setting [2]) was 0.71 ± 0.08 µM; in test [1] (values in text, read-out: IC50) it was < 20 µM. The “antihypertensive effect (change in SBP), in words” value in the test on SHR rats is “lowered SBP in a progressive and maintained manner”.

Take “SEQ ID NO: 3: αs1-CN peptide previously described as an ACE inhibitor (DAYPSGAW)”: the IC50 with ACE is 98 µM.

As for “SEQ ID NO: 5: ACE-inhibitory peptide previously described in the literature, shares five residues with SEQ ID NO: 4 (ENLLRF)”, the IC50 with ACE was 82.4 µM.

Turning to “SEQ ID NO: 7: literature ACE-inhibitory sequence included in peptide SEQ ID NO: 6 (VTSTAV)”, in the test with ACE, the concentration for half-maximal inhibition (IC50) was 52 µM.

“SEQ ID O: 8: literature ACE-inhibitory peptide whose C-terminal tripeptide is LQY (FPQYLQY)”: the IC50 with ACE was 14 µM.

Take VAPFPEVF [VAPFPEVF]: the IC50 in test [1] (setting [2]) worked out at 363 ± 23.6 µM.

With YQKFPQY [YQKFPQY], the IC50 is 20.1 ± 1.25 µM in test [1] (setting [2]) and < 20 µM in test [1] (values in text, read-out: IC50).

Consider “αs1-casein f(23-27): literature peptide with ACE-inhibitory activity but no hypotensive effect in SHR (FFVAP; UniProt P02662 38-42, looked up, fragment)”, for which, in the test with SHR, the “hypotensive effect in SHR” value was “no hypotensive effect”. Further, the ACE-inhibitory activity entry with ACE was “potent ACE-inhibitory activity”.

Turning to “β-lactoglobulin f(142-148): literature peptide with in vitro ACE-inhibitory activity (ALPMHIR; UniProt P02754 158-164, looked up, fragment)”, in the test on human volunteers, the “effect in human volunteers” value was “did not have effect”. Besides, in the test with ACE, the ACE-inhibitory activity result is recorded as “in vitro ACE-inhibitory activity”.
